Experiment: Rat feeding trial (Ratten-Fütterungsversuch), growth promotion
Type: in vivo, Laborratten vom Typ SPF Wistar
Settings: female rats 90-110 g, active substance in feed ad lib, Dosis 25 ppm, 13-day trial, weight gain relative to Kontrolle = 100
Description: Weibliche Laborratten 90-110 g schwer vom Typ SPF Wistar tZüchtung Hagemann) werden ad lib mit Standard Rattenfutter, das mit der gewünschten Menge Wirkstoff versetzt ist, gefüttert. Jeder Versuchsansatz wird mit Futter der identischen Charge durchgeführt, so daß Unterschiede in der Zusammensetzung des Futters die Vergleichbarkeit der Ergebnisse nicht beeinträchtigen können.
Die Ratten erhalten Wasser ad lib.
Jeweils 12 Ratten bilden eine Versuchsgruppe und werden mit Futter, das mit der gewünschten Menge Wirkstoff versetzt ist gefüttert. Eine Kontrollgruppe erhält Futter ohne Wirkstoff. Das durchschnittliche Körpergewicht sowie die Streuung in den Körpergewichten der Ratten ist in jeder Versuchsgruppe gleich, so daß eine Vergleichbarkeit der Versuchsgruppen untereinander gewährleistet ist.
Während des 13-tägigen Versuchs werden Gewichtszunahme und Futterverbrauch bestimmt.
Es werden die aus der Tabelle ersichtlichen Ergebnisse erhalten: […]
With `FC(F)(F)c1cccc(CNC2=NCCCCC2)c1` [14 (Maleinat)] the Zuwachs was 117. `CC(NC1=NCCCCC1)c1cccc(C(F)(F)F)c1` (stereo not drawn) [Beispiel 1] showed a Zuwachs of 111. Work on `FC(F)(F)c1ccc(CNC2=NCCCCC2)cc1` [Beispiel 3] yielded a Zuwachs of 107. With `CC(C)c1ccc(C(F)(F)F)cc1CNC1=NCCCCC1` [Beispiel 9] the Zuwachs was 104. `FC(F)(F)c1ccccc1CNC1=NCCCCC1` [Beispiel 10] gave a Zuwachs of 107. `FC(F)(F)c1cccc(CNC2=NCCCCC2)c1` [Beispiel 13, 2-(3-Trifluormethyl-benzylamino)-tetrahydroazepin] showed a Zuwachs of 112.

— EP0212479A1, “Use of lactam amides as efficiency improvers in animals” (BAYER AG, priority 1985, dated 1987)
